Measured values published in PubChem BioAssay AID328 (DTP/NCI, 2004).
Values joined by “and” are separate entries in the source; they are usually repeats but may differ in a detail not shown here. Equal values may be shown once. Toxic doses and inconclusive results are not listed. How the source made its calls: active means survival T/C of 150% or more; inactive means T/C below 125% in these data.

System: BDF1 mice, P388 leukemia ip, median survival T/C
Assay: NCI In Vivo Anticancer Drug Screen. Data for tumor model P388 Leukemia (intraperitoneal) in B6D2F1 (BDF1) mice
Conditions: endpoint: median survival time, higher = longer survival
Summary of the method: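 Each value expresses how treatment altered survival: treated-mouse outcome over vehicle-mouse outcome, both groups bearing the transplanted tumour.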

[1] = dose: 75.0 mg/kg/injection, schedule: Q01DX009 (ip), vehicle: saline
[2] = dose: 25.0 mg/kg/injection, schedule: Q04DX003 (ip), vehicle: water
[3] = dose: 100.0 mg/kg/injection, schedule: Q04DX003 (ip), vehicle: water
[4] = dose: 100.0 mg/kg/injection, schedule: Q04DX003 (ip), vehicle: saline with Tween-80
[5] = dose: 200.0 mg/kg/injection, schedule: Q04DX003 (ip), vehicle: saline with Tween-80
[6] = dose: 400.0 mg/kg/injection, schedule: Q04DX003 (ip), vehicle: saline with Tween-80
[7] = dose: 50.0 mg/kg/injection, schedule: Q04DX003 (ip), vehicle: saline
[8] = dose: 100.0 mg/kg/injection, schedule: Q04DX003 (ip), vehicle: saline
[9] = dose: 200.0 mg/kg/injection, schedule: Q04DX003 (ip), vehicle: saline
[10] = dose: 100.0 mg/kg/injection, schedule: Q01DX009 (ip), vehicle: saline
[11] = dose: 200.0 mg/kg/injection, schedule: Q01DX009 (ip), vehicle: saline
[12] = dose: 100.0 mg/kg/injection, schedule: Q04DX003 (ip), vehicle: Klucel (hydroxypropylcellulose) (HPC)

Measured: T/C

Cc1ccc(S(=O)(=O)N(c2ccccc2)c2ccccc2)cc1
inactive: dose: 87.5 mg/kg/injection, schedule: Q01DX009 (ip), vehicle: saline with Tween-80 96 % of control | dose: 175.0 mg/kg/injection, schedule: Q01DX009 (ip), vehicle: saline with Tween-80 96 % of control | dose: 350.0 mg/kg/injection, schedule: Q01DX009 (ip), vehicle: saline with Tween-80 101 % of control

N/C(CCNO)=N\O
inactive: [1] 96 % of control | dose: 150.0 mg/kg/injection, schedule: Q01DX009 (ip), vehicle: saline 86 % of control | dose: 300.0 mg/kg/injection, schedule: Q01DX009 (ip), vehicle: saline 96 % of control

CC1=CC23C(COC(=O)C24CO4)C(C(=O)O)=CC3C1C (stereo not given) (tested in a mixture with another compound)
inactive: dose: 0.06 mg/kg/injection, schedule: Q01DX009 (ip), vehicle: Klucel (hydroxypropylcellulose) (HPC) 105 % of control | dose: 0.13 mg/kg/injection, schedule: Q01DX009 (ip), vehicle: Klucel (hydroxypropylcellulose) (HPC) 100 % of control | dose: 0.25 mg/kg/injection, schedule: Q01DX009 (ip), vehicle: Klucel (hydroxypropylcellulose) (HPC) 105 % of control and 116 % of control

COc1cc(OC)cc(C(=O)N2CC2)c1
inactive: dose: 6.25 mg/kg/injection, schedule: Q04DX003 (ip), vehicle: water 105 % of control | dose: 12.5 mg/kg/injection, schedule: Q04DX003 (ip), vehicle: water 98 % of control | [2] 105 % of control | dose: 50.0 mg/kg/injection, schedule: Q04DX003 (ip), vehicle: water 96 % of control | [3] 107 % of control | dose: 200.0 mg/kg/injection, schedule: Q01DX009 (ip), vehicle: water 100 % of control | dose: 200.0 mg/kg/injection, schedule: Q04DX003 (ip), vehicle: water 100 % of control | dose: 300.0 mg/kg/injection, schedule: Q01DX009 (ip), vehicle: water 105 % of control | dose: 400.0 mg/kg/injection, schedule: Q01DX009 (ip), vehicle: water 91 % of control

CN1CCCC(CC2c3ccccc3Sc3ccccc32)C1 (stereo not given)
inactive: dose: 7.5 mg/kg/injection, schedule: Q01DX010 (ip), vehicle: saline 100 % of control | dose: 15.0 mg/kg/injection, schedule: Q01DX010 (ip), vehicle: saline 100 % of control | dose: 30.0 mg/kg/injection, schedule: Q01DX010 (ip), vehicle: saline 100 % of control | dose: 60.0 mg/kg/injection, schedule: Q01DX010 (ip), vehicle: saline 109 % of control

CCC1C/C(=C2/NC3CCCCC3NC2=O)C(=O)O1 (stereo not given)
inactive: dose: 25.0 mg/kg/injection, schedule: Q04DX002 (ip), vehicle: saline with Tween-80 101 % of control | dose: 50.0 mg/kg/injection, schedule: Q04DX002 (ip), vehicle: saline with Tween-80 98 % of control | dose: 100.0 mg/kg/injection, schedule: Q04DX002 (ip), vehicle: saline with Tween-80 88 % of control

O=S(=O)(O)O
inactive: dose: 6.25 mg/kg/injection, schedule: Q01DX009 (ip), vehicle: water 90 % of control | dose: 12.5 mg/kg/injection, schedule: Q01DX009 (ip), vehicle: saline with Tween-80 124 % of control | dose: 12.5 mg/kg/injection, schedule: Q01DX009 (ip), vehicle: water 100 % of control | [2] 90 % of control | [3] 90 % of control

Cc1cc(C)c(CCO)c(C)c1
inactive: dose: 0.37 mg/kg/injection, schedule: Q01DX009 (ip), vehicle: DMSO 113 % of control | dose: 0.75 mg/kg/injection, schedule: Q01DX009 (ip), vehicle: DMSO 113 % of control | dose: 1.5 mg/kg/injection, schedule: Q01DX009 (ip), vehicle: DMSO 95 % of control | dose: 3.0 mg/kg/injection, schedule: Q01DX009 (ip), vehicle: DMSO 88 % of control and 109 % of control | dose: 12.0 mg/kg/injection, schedule: Q01DX009 (ip), vehicle: DMSO 92 % of control | dose: 25.0 mg/kg/injection, schedule: Q04DX003 (ip), vehicle: DMSO 88 % of control | dose: 50.0 mg/kg/injection, schedule: Q04DX003 (ip), vehicle: DMSO 88 % of control

COc1ccc(CN2CCN(Cc3ccc(OC)c(OC)c3)C2c2ccc(OC)c(OC)c2)cc1OC
inactive: dose: 100.0 mg/kg/injection, schedule: Q01DX009 (ip), vehicle: saline with Tween-80 109 % of control | [4] 105 % of control | dose: 200.0 mg/kg/injection, schedule: Q01DX009 (ip), vehicle: saline with Tween-80 100 % of control | [5] 105 % of control | dose: 400.0 mg/kg/injection, schedule: Q01DX009 (ip), vehicle: saline with Tween-80 100 % of control | [6] 95 % of control

NOCc1cccc([N+](=O)[O-])c1
inactive: [7] 100 % of control | [8] 91 % of control | [9] 91 % of control

COc1ccc(Cc2nccc3c(OC)c(OC)ccc23)cc1OC
inactive: dose: 25.0 mg/kg/injection, schedule: Q01DX009 (ip), vehicle: saline 116 % of control | dose: 50.0 mg/kg/injection, schedule: Q01DX009 (ip), vehicle: saline 106 % of control and 119 % of control | [7] 103 % of control | [1] 119 % of control | [10] 119 % of control | [8] 103 % of control | [11] 87 % of control | [9] 87 % of control

CC(=O)c1ccccc1NC=O
inactive: [4] 100 % of control | [5] 104 % of control | [6] 108 % of control

c1ccc(NNC(c2ccccc2)(c2ccccc2)c2ccccc2)cc1
inactive: dose: 100.0 mg/kg/injection, schedule: Q01DX009 (ip), vehicle: Klucel (hydroxypropylcellulose) (HPC) 90 % of control | [12] 104 % of control | dose: 200.0 mg/kg/injection, schedule: Q01DX009 (ip), vehicle: Klucel (hydroxypropylcellulose) (HPC) 100 % of control | dose: 200.0 mg/kg/injection, schedule: Q04DX003 (ip), vehicle: Klucel (hydroxypropylcellulose) (HPC) 91 % of control | dose: 400.0 mg/kg/injection, schedule: Q01DX009 (ip), vehicle: Klucel (hydroxypropylcellulose) (HPC) 90 % of control | dose: 400.0 mg/kg/injection, schedule: Q04DX003 (ip), vehicle: Klucel (hydroxypropylcellulose) (HPC) 95 % of control

CN(C)c1ncnc2nsnc12
inactive: dose: 75.0 mg/kg/injection, schedule: Q04DX003 (ip), vehicle: saline with Tween-80 95 % of control

CCC(=O)OCC1OC(n2cnc3c(=S)nc(N)[nH]c32)C(OC(=O)CC)C1OC(=O)CC (stereo not given)
active: dose: 25.0 mg/kg/injection, schedule: Q04DX003 (ip), vehicle: Klucel (hydroxypropylcellulose) (HPC) 173 % of control
inactive: dose: 12.5 mg/kg/injection, schedule: Q04DX003 (ip), vehicle: Klucel (hydroxypropylcellulose) (HPC) 103 % of control | dose: 16.0 mg/kg/injection, schedule: Q04DX003 (ip), vehicle: Klucel (hydroxypropylcellulose) (HPC) 118 % of control | dose: 25.0 mg/kg/injection, schedule: Q01DX009 (ip), vehicle: Klucel (hydroxypropylcellulose) (HPC) 115 % of control | dose: 50.0 mg/kg/injection, schedule: Q01DX009 (ip), vehicle: Klucel (hydroxypropylcellulose) (HPC) 100 % of control | [12] 122 % of control

Cc1ccc(S(=O)(=O)N/N=C/c2ccncc2)cc1
inactive: dose: 12.5 mg/kg/injection, schedule: Q01DX009 (ip), vehicle: other 110 % of control | dose: 25.0 mg/kg/injection, schedule: Q01DX009 (ip), vehicle: other 117 % of control | dose: 50.0 mg/kg/injection, schedule: Q01DX009 (ip), vehicle: other 119 % of control
active: dose: 200.0 mg/kg/injection, schedule: Q01DX009 (ip), vehicle: other 155 % of control

COc1cc(C=NC(CO)C(=O)O)ccc1O.COc1cc(C=NC(CO)C(=O)O)ccc1O.[Fe] (stereo not given)
inactive: [10] 100 % of control | [8] 100 % of control | [11] 100 % of control | [9] 95 % of control | dose: 400.0 mg/kg/injection, schedule: Q04DX003 (ip), vehicle: saline 95 % of control

CC(CCl)OC(C)CCl (stereo not given)
inactive: dose: 100.0 mg/kg/injection, schedule: Q04DX002 (ip), vehicle: saline 106 % of control | dose: 200.0 mg/kg/injection, schedule: Q04DX002 (ip), vehicle: saline 107 % of control | dose: 400.0 mg/kg/injection, schedule: Q04DX002 (ip), vehicle: saline 107 % of control

Cc1c2ccccc2c(CSC(=N)N)c2ccccc12
active: dose: 9.38 mg/kg/injection, schedule: Q04DX003 (ip), vehicle: saline with Tween-80 154 % of control | dose: 12.5 mg/kg/injection, schedule: Q04DX003 (ip), vehicle: saline 160 % of control | dose: 25.0 mg/kg/injection, schedule: Q04DX003 (ip), vehicle: saline 180 % of control
